Measured values taken from the NIST ThermoML archive (doi:10.1021/je300347z).

Key:
[1] = Liquid; for mass density: 293.2 K, 101.33 kPa, Vibrating tube method
[2] = refractive index (Na D-line) (dimensionless); details: 293.2 K; 101.33 kPa; Liquid; Standard Abbe refractometry

C=C(C)[C@H]1CC=C(C)CC1 [(R)-1-methyl-4-(1-methylethenyl)cyclohexene]
Details | mass density [kg/m3] | refractive index
[1] | 814.83 | –
[2] | – | 1.473

[1]
Details | vapor or sublimation pressure [kPa]
375.5 K | 10
394.5 K | 20
403.2 K | 27.48
406.5 K | 30
415.7 K | 40
415.8 K | 40
423.2 K | 49.74
423.4 K | 50
429.8 K | 60
435.5 K | 70
440.5 K | 80
445 K | 90
450 K | 100

CCCCO [butan-1-ol]
Details | mass density [kg/m3] | refractive index
[1] | 810.28 | –
[2] | – | 1.3993

[1]
Details | vapor or sublimation pressure [kPa]
337.2 K | 10
351.1 K | 20
360 K | 30
366.7 K | 40
372.1 K | 50
376.6 K | 60
380.5 K | 70
384 K | 80
387.2 K | 90
390.1 K | 100

CCO [ethanol]
Details | mass density [kg/m3] | refractive index
[1] | 789.91 | –
[2] | – | 1.3612

[1]
Details | vapor or sublimation pressure [kPa]
302.4 K | 10
315.4 K | 20
323.6 K | 30
329.7 K | 40
330 K | 40
334.7 K | 50
338.8 K | 60
342.4 K | 70
345.6 K | 80
348.5 K | 90
351.1 K | 100

CCCCCCO [hexan-1-ol]
Details | mass density [kg/m3] | refractive index
[1] | 816.31 | –
[2] | – | 1.4207

[1]
Details | vapor or sublimation pressure [kPa]
369.8 K | 10
385.7 K | 20
395.7 K | 30
403.2 K | 40
403.4 K | 40
409.3 K | 50
414.5 K | 60
419 K | 70
423 K | 80
426.5 K | 90
429.6 K | 99.7

CCCCCO [pentan-1-ol]
Details | mass density [kg/m3] | refractive index
[1] | 814.16 | –
[2] | – | 1.4097

[1]
Details | vapor or sublimation pressure [kPa]
354 K | 10
368.7 K | 20
378 K | 30
384.7 K | 40
385.3 K | 40
391 K | 50
395.9 K | 60
400.2 K | 70
403.9 K | 80
407.3 K | 90
410.4 K | 100

CCCO [propan-1-ol]
Details | mass density [kg/m3] | refractive index
[1] | 801.33 | –
[2] | – | 1.3851

[1]
Details | vapor or sublimation pressure [kPa]
319.6 K | 10
332.8 K | 20
341.3 K | 30
347.7 K | 40
352.7 K | 50
357.1 K | 60
360.8 K | 70
364.1 K | 80
367.1 K | 90
369.8 K | 100

CC(C)O [propan-2-ol]
Details | mass density [kg/m3] | refractive index
[1] | 785.42 | –
[2] | – | 1.3771

[1]
Details | vapor or sublimation pressure [kPa]
307.1 K | 10
319.9 K | 20
328 K | 30
334 K | 40
334.1 K | 40
338.8 K | 50
342.9 K | 60
346.5 K | 70
349.7 K | 80
352.5 K | 90
355 K | 100
